The test system of experiment [1] is TABX2S cells (over-expressing Bcl-xL). The experiment is described as follows: in vitro. From the text:
Briefly, a DNA fragment encoding the full-length mouse Bcl-xL cDNA was isolated from the plasmid pBS-BCL-xL (Tzung et al., Am. J. Path. 150:1985-1995 (1997), incorporated herein by reference in its entirety) by digestion with the restriction endonuclease EcoRI. This EcoRI fragment was cloned into the EcoRI site of the mammalian expression vector pSFFV (Fuhlbrigge et al., Proc. Nat. Acad. Sci. USA 85:5649-5653 (1988)) in both sense and antisense orientations, to form expression plasmids pSFFV-Bc/-xL-WT(sense) or pSFFV-Bc/-xL(antisense), respectively. The tumorigenic murine hepatocyte cell line TAMH was transfected by lipofection (Lipofectamine, Life Technologies, Rockville, Md., according to the manufacturer's recommendations) with the plasmids pSFFV-neo (the control), pSFFV-Bc/-xL-WT(sense) or pSFFV-Bc/-xL(antisense). Characterization of and culture conditions for the cell lines have been previously published (Wu et al., Proc. Nat. Acad. Sci. USA 91:674-78 (1994); Wu et al., Cancer Res. 54:5964-5973 (1994)). Transfectants were selected for the acquisition of neomycin resistance by growing cells in the presence of 750 μg/ml of G418. Bulk transfectants were cloned by limiting dilution and individual clones were screened by immunoblot analysis to determine the level of Bcl-xL, protein expression as described below.
Selected transfectants were then tested for whole cell sensitivity to several apoptotic agents. Transfected cells were cultured to reach approximately 80% confluency prior to plating an equal number of cells from selected clones on 12-well tissue culture plates. The transplanted cells were treated with the following apoptotic agents: 5 μM doxorubicin for 48 hours; 5 μM cisplatin for 48 hours; or with 200 U/ml tumor necrosis factor (TNF) plus 1 μg/ml actinomycin D for 18 hours. Cell viability was determined by trypan blue dye exclusion. The percentage of viable cells was calculated by the number of viable cells (treated with a particular apoptogenic agent) divided by the number in the control group (untreated).
TABX2S cells and TABX1A cells were also examined for the effects of various mitochondrial inhibitors. […] Azide was diluted from an aqueous stock solution.

Experiment [2] has as its system control mitochondria. The experiment is described as follows: Rhodamine 123 retention assay, isolated mitochondria. The class given is biochemical, murine. Conditions: five minutes after addition. The method, then:
(§1) Rh-123 is a cationic lipid-soluble fluorescent dye that accumulates in mitochondria in proportion to the mitochondrial membrane potential. Mitochondria were isolated from TABX2S cells (over-expressing Bcl-xL) and from control cells, prepared as described in Example 2. The isolated mitochondria were loaded with Rh-123 by incubation with 10 μM Rh-123 for 30 minutes, washing and resuspention in buffer. […] Less than 40% of Rh-123 was retained in antimycin A-treated TABX2S mitochondria, compared with greater than 80% retained in control mitochondria.

The subject of experiment [3] is mitochondria from TABX2S cells. The description is as above. The class given is biochemical, murine. Conditions: five minutes after addition. The method, then: as §1
In experiment [4] the test system is TAMH hepatocyte and RPMI-8226 myeloma cell lines. The experiment is described as follows: O2 consumption, Clark electrode. The class given is cell-based. The conditions noted are these: 10 μM. The method, then: Respiratory rates of both cell lines were maintained through repeated additions of 10 μM 2-OMeAA, to a final concentration of 90 μM (FIG. 7A). […] The metabolic response to hypoxia is dominated by a shift to glycolytic metabolism characterized by increased rates of glucose uptake and reductive conversion of pyruvate to lactic acid. Real-time glucose consumption and lactate production by TAMH cells grown on microcarrier beads were monitored using a microsequential injection-lab on valve (μSI-LOV) system (Schulz et al., Analyst 127:1293-1298 (2002)). […] Since 2-OMeAA has no effect on cellular respiration at these concentrations, 2-OMeAA induces aerobic glycolysis in TAMH cells. The glycolytic response to 2-OMeAA was proportional to cellular Bcl-xL protein expression (FIG. 7C).

In experiment [5] the test system is TAMH cells. The experiment is described as follows: Microsequential injection-lab on valve glucose consumption and lactate production. It counts as cell-based, murine. The conditions noted are these: 10-100 nM. The method, then: Detailed methods have been previously published (Schulz et al., Analyst 127:1583-1588 (2002)). Cytopore™ beads (Amersham Pharmacia Biotech, Upsala, Sweden) were hydrated in Hanks balanced salt solution (Gibco-BRL, Grand Island, N.Y.) and autoclaved according to manufacturers instructions. Beads were incubated in serum-containing media overnight. TAMH cells were transferred to the bead slurry at an approximate ratio of 50 cells per bead and grown in spinner culture flasks with gentle stirring. Beads were collected for metabolic studies at cell densities of approximately 100-500 cells/bead. For experiments, cell medium was replaced with HBSS. […]
Glucose and lactate concentrations were assayed as substrates in first-order NAD-linked enzymatic reactions, with NADH generation monitored by absorbance at 340 nm. […]
An assay cycle is initiated by packing a column of cells attached to beads in the microbioreactor, which is upstream of the LOV flow cell. […] After the stop flow period, 3 μL of the interstitial fluid from the cell column is injected through to the LOV flow cell previously loaded with glucose or lactate reagent and 340 nm absorbance recorded for 30 s after mixing. Calibration standards were used to convert endpoint absorbance to concentrations. […]

For antimycin A, the “time until cell death readily apparent” value in experiment [1] is at most 2 h. Besides, the Rh-123 retained result in experiment [2] is recorded as “greater than 80%”; in experiment [3], “Less than 40%”. For the same substance, in experiment [4], the “respiration dampened by” value is listed as above 90%. The “glucose uptake and lactate production” value in experiment [5] was “increased glucose uptake and lactate production”.
